Source: patent US8263598B2, “Substituted sulfonamide compounds” (Gruenenthal GmbH, priority 2008, dated 2012)

Legend:
[1] = target: T1, human B1R receptor (hB1R) (Homo sapiens, UniProt P46663); assay: FLIPR Ca2+ assay on human bradykinin 1 receptor (CHO K1 hB1R cells); format: cell-based; settings: test substance 10 μM; CHO K1 cells with human B1R gene; agonist Lys-Des-Arg9-bradykinin 0.5 nM; compared to maximum achievable inhibition
T1 construct: host or cells: CHO K1 cells
T1 sequence (P46663 1-353): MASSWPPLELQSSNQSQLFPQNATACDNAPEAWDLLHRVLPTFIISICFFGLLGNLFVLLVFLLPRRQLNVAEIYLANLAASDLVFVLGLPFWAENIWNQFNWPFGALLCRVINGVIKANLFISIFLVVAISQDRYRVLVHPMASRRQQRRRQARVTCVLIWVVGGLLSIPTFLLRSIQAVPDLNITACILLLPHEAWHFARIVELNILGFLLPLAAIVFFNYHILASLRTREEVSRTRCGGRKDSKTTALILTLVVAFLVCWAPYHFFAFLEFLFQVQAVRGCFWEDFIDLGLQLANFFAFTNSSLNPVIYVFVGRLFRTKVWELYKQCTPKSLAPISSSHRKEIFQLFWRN
Method in brief: (§1)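 CHO K1 cells stably expressing human or rat B1R were loaded with Fluo-4 and tested at 10 μM compound. Ca²⁺ signal was read in FLIPR as % activation versus agonist. After 10 min, agonist was added (hB1R: Lys-Des-Arg9-bradykinin 0.5 nM; rB1R: Des-Arg9-bradykinin 100 nM), and % inhibition was taken relative to maximum achievable inhibition.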

[2] = target: T2, B1R receptor of rats (rB1R) (Rattus norvegicus, UniProt P97583); assay: FLIPR Ca2+ assay on rat bradykinin 1 receptor (CHO K1 rB1R cells); format: cell-based; settings: test substance 10 μM; CHO K1 cells with B1R gene of rats; agonist Des-Arg9-bradykinin 100 nM; compared to maximum achievable inhibition
T2 construct: host or cells: CHO K1 cells
T2 sequence (P97583 1-337): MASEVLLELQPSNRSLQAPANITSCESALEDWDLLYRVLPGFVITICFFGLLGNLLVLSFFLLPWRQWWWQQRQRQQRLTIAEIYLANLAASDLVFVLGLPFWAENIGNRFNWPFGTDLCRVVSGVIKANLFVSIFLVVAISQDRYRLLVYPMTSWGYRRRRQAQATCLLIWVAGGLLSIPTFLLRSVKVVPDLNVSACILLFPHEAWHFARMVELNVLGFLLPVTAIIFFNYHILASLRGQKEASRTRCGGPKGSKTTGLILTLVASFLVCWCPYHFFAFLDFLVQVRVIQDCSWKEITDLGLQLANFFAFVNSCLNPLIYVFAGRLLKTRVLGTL
Method in brief: as §1

| Compound | inhibition at 10 µM [1] [%] | inhibition at 10 µM [2] [%] | hB1R [10 μM] % Inhibition [1] [%] | rB1R [10 μM] % Inhibition [2] [%] |
| --- | --- | --- | --- | --- |
| COc1cc(C)c(S(=O)(=O)N(C)CCOCC(=O)N2CCn3cccc3C2C(C)C)c(C)c1C (stereo not shown) [Example 153, N-(2-(2-(1-isopropyl-3,4-dihydropyrrolo[1,2-a]pyrazin-2(1H)-yl)-2-oxoethoxy)ethyl)-4-methoxy-N,2,3,6-tetramethylbenzenesulfonamide] | 103 | 103 |  |  |
| CCCC1c2cccn2CCN1C(=O)COCCN(Cc1ccccc1)S(=O)(=O)c1c(C)cc(OC)cc1C (stereo not shown) [Example 154, N-benzyl-4-methoxy-2,6-dimethyl-N-(2-(2-oxo-2-(1-propyl-3,4-dihydropyrrolo[1,2-a]pyrazin-2(1H)-yl)ethoxy)ethyl)benzenesulfonamide] | 23 | 87 |  |  |
| COc1cc(C)c(S(=O)(=O)N(CCOCC(=O)N2CCn3cccc3C2C(C)C)Cc2ccccc2)c(C)c1 (stereo not shown) [Example 155, N-benzyl-N-(2-(2-(1-isopropyl-3,4-dihydropyrrolo[1,2-a]pyrazin-2(1H)-yl)-2-oxoethoxy)ethyl)-4-methoxy-2,6-dimethylbenzenesulfonamide] | 75 | 101 |  |  |
| CCC1c2cccn2CCN1C(=O)C[C@@H](NS(=O)(=O)c1ccc2ccccc2c1)c1ccccc1 (stereo partly drawn) [Example 162, N-((1R)-3-(1-Ethyl-3,4-dihydropyrrolo[1,2-a]pyrazin-2(1H)-yl)-3-oxo-1-phenylpropyl)naphthalene-2-sulfonamide] | 57 | 98 |  |  |
| COc1cc(C)c(S(=O)(=O)N(C)CCOCC(=O)N2CCn3c(Cc4ccncc4)ccc3C2)c(C)c1 [Example 165, 4-Methoxy-N,2,6-trimethyl-N-(2-(2-oxo-2-(6-(pyridin-4-ylmethyl)-3,4-dihydropyrrolo[1,2-a]pyrazin-2(1H)-yl)ethoxy)ethyl)benzenesulfonamide] | 100 | 99 |  |  |
| COc1cc(C)c(S(=O)(=O)N(C)CCOCC(=O)N2CCn3c(ccc3-c3cccnc3)C2)c(C)c1 [Example 166, 4-Methoxy-N,2,6-trimethyl-N-(2-(2-oxo-2-(6-(pyridin-3-yl)-3,4-dihydropyrrolo[1,2-a]pyrazin-2(1H)-yl)ethoxy)ethyl)benzenesulfonamide] | 100 | 99 |  |  |
| O=C(CC(NS(=O)(=O)c1ccc2ccccc2c1)c1ccccc1)N1CCn2c(ccc2-c2cccnc2)C1 (stereo not shown) [Example 167, N-(3-Oxo-1-phenyl-3-(6-(pyridin-3-yl)-3,4-dihydropyrrolo[1,2-a]pyrazin-2(1H)-yl)propyl)naphthalene-2-sulfonamide] | 32 | 70 |  |  |
| O=C(CC(NS(=O)(=O)c1ccc2ccccc2c1)c1ccccc1)N1CCn2c(ccc2-c2ccncc2)C1 (stereo not shown) [Example 168, N-(3-Oxo-1-phenyl-3-(6-(pyridin-4-yl)-3,4-dihydropyrrolo[1,2-a]pyrazin-2(1H)-yl)propyl)naphthalene-2-sulfonamide] | 55 | 57 |  |  |
| O=C(CC(NS(=O)(=O)c1ccc2ccccc2c1)c1ccccc1)N1CCn2c(Cc3ccncc3)ccc2C1 (stereo not shown) [Example 169, N-(3-Oxo-1-phenyl-3-(6-(pyridin-4-ylmethyl)-3,4-dihydropyrrolo[1,2-a]pyrazin-2(1H)-yl)propyl)naphthalene-2-sulfonamide] | 78 | 98 |  |  |
| COc1cc(C)c(S(=O)(=O)N(C)CCOCC(=O)N2CCn3c(CCc4cccnc4)ccc3C2)c(C)c1 [Example 170, 4-Methoxy-N,2,6-trimethyl-N-(2-(2-oxo-2-(6-(2-(pyridin-3-yl)ethyl)-3,4-dihydropyrrolo[1,2-a]pyrazin-2(1H)-yl)ethoxy)ethyl)benzenesulfonamide] | 99 | 98 |  |  |
| O=C(CC(NS(=O)(=O)c1ccc2ccccc2c1)c1ccccc1)N1CCn2c(CCc3cccnc3)ccc2C1 (stereo not shown) [Example 171, N-(3-Oxo-1-phenyl-3-(6-(2-(pyridin-3-yl)ethyl)-3,4-dihydropyrrolo[1,2-a]pyrazin-2(1H)-yl)propyl)naphthalene-2-sulfonamide] | 30 | 99 |  |  |
| COc1cc(C)c(S(=O)(=O)N(C)CCOCC(=O)N2CCn3c(CCc4ccncc4)ccc3C2)c(C)c1 [Example 172, 4-Methoxy-N,2,6-trimethyl-N-(2-(2-oxo-2-(6-(2-(pyridin-4-yl)ethyl)-3,4-dihydropyrrolo[1,2-a]pyrazin-2(1H)-yl)ethoxy)ethyl)benzenesulfonamide] | 100 | 97 |  |  |
| O=C(CC(NS(=O)(=O)c1ccc2ccccc2c1)c1ccccc1)N1CCn2c(CCc3ccncc3)ccc2C1 (stereo not shown) [Example 173, N-(3-Oxo-1-phenyl-3-(6-(2-(pyridin-4-yl)ethyl)-3,4-dihydropyrrolo[1,2-a]pyrazin-2(1H)-yl)propyl)naphthalene-2-sulfonamide] | 20 | 75 |  |  |
| COc1cc(C)c(S(=O)(=O)N(C)CCOCC(=O)N2CCn3c(Cc4cccnc4)ccc3C2)c(C)c1 [Example 174, 4-Methoxy-N,2,6-trimethyl-N-(2-(2-oxo-2-(6-(pyridin-3-ylmethyl)-3,4-dihydropyrrolo[1,2-a]pyrazin-2(1H)-yl)ethoxy)ethyl)benzenesulfonamide] | 100 | 94 |  |  |
| COc1cc(C)c(S(=O)(=O)N(C)CCOCC(=O)N2CCn3cc(-c4ccncc4)nc3C2)c(C)c1 [Example 175, 4-Methoxy-N,2,6-trimethyl-N-(2-(2-oxo-2-(2-(pyridin-4-yl)-5,6-dihydroimidazo[1,2-a]pyrazin-7(8H)-yl)ethoxy)ethyl)benzenesulfonamide] | 100 | 102 |  |  |
| O=C(CC(NS(=O)(=O)c1ccc2ccccc2c1)c1ccccc1)N1CCn2c(Cc3cccnc3)ccc2C1 (stereo not shown) [Example 176, N-(3-Oxo-1-phenyl-3-(6-(pyridin-3-ylmethyl)-3,4-dihydropyrrolo[1,2-a]pyrazin-2(1H)-yl)propyl)naphthalene-2-sulfonamide] | 45 | 87 |  |  |
| COc1cc(C)c(S(=O)(=O)N(C)CCOCC(=O)N2CCn3c(ccc3-c3ccncc3)C2)c(C)c1 [Example 177, 4-Methoxy-N,2,6-trimethyl-N-(2-(2-oxo-2-(6-(pyridin-4-yl)-3,4-dihydropyrrolo[1,2-a]pyrazin-2(1H)-yl)ethoxy)ethyl)benzenesulfonamide] | 99 | 97 |  |  |
| COc1cc(C)c(S(=O)(=O)N(C)CCOCC(=O)N2CCn3cc(CCc4ccncc4)nc3C2)c(C)c1 [Example 178, 4-Methoxy-N,2,6-trimethyl-N-(2-(2-oxo-2-(2-(2-(pyridin-4-yl)ethyl)-5,6-dihydroimidazo[1,2-a]pyrazin-7(8H)-yl)ethoxy)ethyl)benzenesulfonamide] | 99 | 100 |  |  |
| COc1cc(C)c(S(=O)(=O)N(C)CCOCC(=O)N2CCn3cc(Cc4ccncc4)nc3C2)c(C)c1 [Example 179, 4-Methoxy-N,2,6-trimethyl-N-(2-(2-oxo-2-(2-(pyridin-4-ylmethyl)-5,6-dihydroimidazo[1,2-a]pyrazin-7(8H)-yl)ethoxy)ethyl)benzenesulfonamide] | 100 | 100 |  |  |
| N-benzyl-N-(2-(2-(6-((dimethylamino)methyl)-1-ethyl-3,4-dihydropyrrolo[1,2-a]pyrazin-2(1H)-yl)-2-oxoethyl)ethyl)-4-methoxy-2,3,6-trimethylbenzenesulfonamide [Example 122] |  |  | 101 | 101 |
